Assay results: ChEMBL document CHEMBL1201862, “PubChem BioAssay data set” (2004)
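Where inhibition never reached the appropriate level, the endpoint shown equals the highest concentration tested. Otherwise, values were interpolated linearly from a five-concentration, 48-hour dose response in 96-well plates. Abbreviation: GI50, concentration required for 50% inhibition of growth.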 Calls of active or inactive are those of the source. Cut-off read from the data, not from the text of the source: active = GI50 up to about 1.1 µM and inactive = higher.

Tests used:
Experiment in all cases: DTP human tumour cell line panel, 48 h
U-251 = test system: U-251
SNB-75 = test system: SNB-75
PC-3 = test system: PC-3
NCI/ADR-RES = test system: NCI/ADR-RES
K562 = test system: K562
HCC 2998 = test system: HCC 2998
SF-268 = test system: SF-268
SN12C = test system: SN12C
DU-145 = test system: DU-145
RXF 393 = test system: RXF 393
ACHN = test system: ACHN
HCT-116 = test system: HCT-116
NCI-H226 = test system: NCI-H226
SW-620 = test system: SW-620
OVCAR-5 = test system: OVCAR-5
IGROV-1 = test system: IGROV-1
UO-31 = test system: UO-31
HOP-62 = test system: HOP-62
UACC-257 = test system: UACC-257
OVCAR-8 = test system: OVCAR-8
HT-29 = test system: HT-29
NCI-H522 = test system: NCI-H522
SF-295 = test system: SF-295
EKVX = test system: EKVX
A498 = test system: A498
Malme-3M = test system: Malme-3M
NCI-H23 = test system: NCI-H23
TK-10 = test system: TK-10
OVCAR-3 = test system: OVCAR-3
HL-60 = test system: HL-60
MDA-MB-231 = test system: MDA-MB-231
SNB-19 = test system: SNB-19
SF-539 = test system: SF-539
HOP-92 = test system: HOP-92
HCT-15 = test system: HCT-15
MOLT-4 = test system: MOLT-4
CAKI-1 = test system: CAKI-1
MDA-MB-435 = test system: MDA-MB-435
COLO 205 = test system: COLO 205
SK-MEL-2 = test system: SK-MEL-2
KM12 = test system: KM12
SK-OV-3 = test system: SK-OV-3
CCRF-CEM = test system: CCRF-CEM
786-0 = test system: 786-0
SR = test system: SR
MDA-N = test system: MDA-N
SK-MEL-5 = test system: SK-MEL-5
LOX IMVI = test system: LOX IMVI
MCF7 = test system: MCF7
M14 = test system: M14
SK-MEL-28 = test system: SK-MEL-28
UACC-62 = test system: UACC-62
OVCAR-4 = test system: OVCAR-4
NCI-H460 = test system: NCI-H460
A549 = test system: A549
T47D = test system: T47D
RPMI-8226 = test system: RPMI-8226
Hs-578T = test system: Hs-578T

Measured: GI50

CC[n+]1cnc(N)c2c(-c3ccc(Cl)cc3)cn(-c3ccc(C)cc3)c21
active: MCF7 0.971 µM
14.9 µM: HCT-15
inactive: U-251 11.9 µM | SNB-75 3.56 µM | PC-3 10.5 µM | NCI/ADR-RES 12.9 µM | K562 5.33 µM | HCC 2998 4.33 µM | SF-268 13.6 µM | SN12C 12.3 µM | DU-145 17.9 µM | RXF 393 3.05 µM | ACHN 12.9 µM | HCT-116 9.4 µM | NCI-H226 13.2 µM | SW-620 15.3 µM | OVCAR-5 15.8 µM | IGROV-1 13.1 µM | UO-31 9.93 µM | HOP-62 16.8 µM | UACC-257 2.82 µM | OVCAR-8 18.5 µM | HT-29 4.36 µM | NCI-H522 15.5 µM | SF-295 12.7 µM | EKVX 14.8 µM | A498 11.4 µM | Malme-3M 12.3 µM | NCI-H23 19.1 µM | TK-10 17.6 µM | OVCAR-3 9.38 µM | HL-60 24.8 µM | MDA-MB-231 17 µM | SNB-19 15.5 µM | SF-539 14.6 µM | HOP-92 11.2 µM | MOLT-4 4.52 µM | CAKI-1 16 µM | MDA-MB-435 11.5 µM | COLO 205 3.78 µM | SK-MEL-2 18.7 µM | KM12 15.8 µM | SK-OV-3 15.4 µM | CCRF-CEM 6.89 µM | 786-0 11.4 µM | SR 4.6 µM | MDA-N 12.5 µM | SK-MEL-5 10.3 µM | LOX IMVI 11.4 µM | M14 1.94 µM | SK-MEL-28 9.33 µM | UACC-62 11.4 µM | OVCAR-4 2.77 µM | NCI-H460 15.7 µM | A549 12.7 µM | T47D 12 µM

CCn1ncc(N=O)c1N
inactive: RPMI-8226 > 100 µM | K562 > 100 µM | SF-268 > 100 µM | Hs-578T > 100 µM | HCT-116 > 100 µM | IGROV-1 > 100 µM | NCI-H522 > 100 µM | NCI-H23 > 100 µM | SNB-19 > 100 µM | SF-539 > 100 µM | COLO 205 > 100 µM | KM12 > 100 µM | CCRF-CEM > 100 µM | MDA-N > 100 µM | M14 > 100 µM | A549 > 100 µM

Cc1cc(/N=C/c2c(CO)cnc(C)c2O)c(/N=C/c2c(CO)cnc(C)c2O)cc1C
inactive: U-251 > 100 µM | PC-3 > 100 µM | K562 > 100 µM | SF-268 > 100 µM | SN12C > 100 µM | DU-145 > 100 µM | RXF 393 > 100 µM | SW-620 > 100 µM | OVCAR-5 > 100 µM | UACC-257 > 100 µM | NCI-H522 78.9 µM | EKVX > 100 µM | Malme-3M > 100 µM | NCI-H23 > 100 µM | OVCAR-3 > 100 µM | SF-539 95.9 µM | MDA-MB-435 > 100 µM | SK-OV-3 > 100 µM | CCRF-CEM 17 µM | MCF7 75.9 µM | SK-MEL-28 > 100 µM | T47D > 100 µM
> 100 µM: HCT-15

O=C1CC(c2cccc(Cl)c2)Oc2ccccc21 (stereo not drawn)
inactive: U-251 25.5 µM | SNB-75 22.6 µM | PC-3 15.7 µM | NCI/ADR-RES 26.2 µM | RPMI-8226 3.65 µM | K562 2.9 µM | HCC 2998 15.4 µM | SF-268 22.3 µM | DU-145 17.7 µM | Hs-578T 23.6 µM | ACHN 16.2 µM | HCT-116 15.9 µM | NCI-H226 21.4 µM | SW-620 18.3 µM | IGROV-1 15 µM | UO-31 13.8 µM | HOP-62 17.1 µM | UACC-257 16.9 µM | OVCAR-8 29.2 µM | HT-29 17.5 µM | SF-295 19.4 µM | EKVX 14.8 µM | A498 24.7 µM | NCI-H23 10.2 µM | TK-10 > 10 µM | HL-60 11.1 µM | MDA-MB-231 34.5 µM | SNB-19 15.3 µM | SF-539 18.2 µM | HOP-92 15.2 µM | CAKI-1 6.18 µM | MDA-MB-435 17.4 µM | COLO 205 23.7 µM | SK-MEL-2 19.9 µM | KM12 15.7 µM | SK-OV-3 20.9 µM | CCRF-CEM 10.1 µM | 786-0 16.7 µM | SK-MEL-5 17.9 µM | LOX IMVI 20 µM | MCF7 6.4 µM | M14 18.1 µM | SK-MEL-28 18.6 µM | UACC-62 14.9 µM | OVCAR-4 22.4 µM | NCI-H460 18.4 µM | T47D 12.7 µM
15.9 µM: HCT-15
